Test in all cases: DTP human tumour cell line panel, 48 h
Test [1] relates to SK-MEL-2 melanoma.
For test [2], the system named is NCI-H522 lung.
Test [3] relates to EKVX NSCLC.
Test [4] has as its system SR leukemia.
For test [5], the system named is U251 CNS.
Test [6] deals with HOP-62 NSCLC.
Test [7] concerns K-562 leukemia.
In test [8] the test system is SK-MEL-5 melanoma.
The test system of test [9] is HCT-116 colon.
Test [10] has as its system LOX IMVI melanoma.

SMILES strings stand for the structures.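 The compound was tested at five concentrations on cells cultured in 96-well plates, with a 48-hour exposure period. Abbreviation: GI50, concentration required for 50% inhibition of growth. At the TGI there is no net growth.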

As to `Cc1ccc(N(CC(=O)Nc2ccc(S(=O)(=O)N3CCC(N4CCCC4)CC3)cc2)S(=O)(=O)c2ccc(Cl)cc2)cc1`, the GI50 (as a rule, the concentration giving 50% growth inhibition) is 1950 nM in [1]; 1890 nM in [2]; 1690 nM in [3]; 300 nM in test [4]; 1560 nM in [5]; 1760 nM in [6]. Moreover, the results for the GI50 in test [7] and in test [8] were 566 nM and 1730 nM, respectively. Besides, the concentration for total growth inhibition (TGI) (usually the concentration giving total growth inhibition) in test [1] was 3920 nM; in test [2] it was 3770 nM; in [3], 3820 nM; in [4], 856 nM; in test [5] it was 2980 nM; in test [6], 3550 nM. In addition, the total growth inhibition concentration (TGI) is 2750 nM in test [7] and 3140 nM in [8].

Consider `O=C1Nc2ccc(Cl)cc2/C1=C\c1c(Cl)nc2sccn12`, for which the TGI in test [1] is above 100000 nM; in [9], 34000 nM; in test [2] it was above 100000 nM; in [10], above 100000 nM; in test [4], above 100000 nM; in test [5], above 100000 nM. Besides, the concentration for total growth inhibition (TGI) in test [6] was 96300 nM; in [7], above 100000 nM.

For the compound `O=C(Nc1ccc(-n2ccc3c(NC(=O)c4ccccc4)ncnc32)cc1)Nc1cccc(Cl)c1Cl`, the GI50 in [1] was 1330 nM; in test [9], 673 nM; in test [2], 972 nM; in test [3], 1300 nM; in [10] it was 763 nM; in test [4] it was 659 nM. Besides, the GI50 in test [5] is 571 nM; in test [6] it was 983 nM; in test [7], 985 nM; in [8], 1350 nM. Further, the TGI came to 3880 nM in [1]; 2380 nM in test [9]; 3110 nM in test [2]; 4590 nM in test [3]; 2040 nM in [10]; 2920 nM in test [4]. For the same compound, the TGI in [5] turned out to be 1400 nM; in [6], 2150 nM; in test [7], 6040 nM; in test [8] it was 9990 nM.

With `CC(=O)NC1=C[C@@H]([C@H]2COC(C)(C)O2)OC1=O`, the concentration for total growth inhibition (TGI) in [1], in [9], in [2], in test [3], in test [10] and in [5] was above 100000 nM throughout. In addition, the TGI in test [6], in [7] and in test [8] was above 100000 nM in each case.

Source of the values: PubChem BioAssay (NCI).
